How the values were obtained:
serum HDL cholesterol = assay: in vivo test procedure measuring elevation of HDL cholesterol levels in cholesterol/cholic acid-fed rats; design: species or system Male Sprague-Dawley rats; settings: rats fed diet with 0.25% cholic acid and 1.0% cholesterol, 100 mg/kg/day in diet for 8 days, serum HDL cholesterol by FPLC; for change in vivo at 100 mg/kg/day: Rattus norvegicus, feed or water, 192 h, read-out: HDL Cholesterol Level Increase (%)
Protocol: Representative compounds according to the present invention were evaluated in an in vivo standard pharmacological test procedure which measured the ability of the compounds to elevate HDL cholesterol levels. The following describes the procedure used and results obtained. Male Sprague-Dawley rats weighing 200-225 g were housed two per cage and fed Purina Rodent Chow Special Mix 5001-S supplemented with 0.25% cholic acid and 1.0% cholesterol and water ad libitum for 8 days. Each test substance was administered to a group of six rats fed the same diet with the test diet mixed in as 0.005-0.1% of the total diet. Body weight and food consumption were recorded prior to diet administration and at termination. The test substances were administered at a dosage of 100 mg/kg/day.
At termination, blood was collected from anesthetized rats and the serum was separated by centrifugation. Total serum cholesterol was assayed using the Sigma Diagnostics enzymatic kit for the determination of cholesterol, Procedure No. 352, modified for use with ninety-six well microtiter plates. After reconstitution with water the reagent contains 300 U/l cholesterol oxidase, 100 U/l cholesterol esterase, 1000 U/l horse radish peroxidase, 0.3 mmoles/l 4-aminoantipyrine and 30.0 mmoles/l p-hydroxybenzene sulfonate in a pH 6.5 buffer. In the reaction, cholesterol was oxidized to produce hydrogen peroxide which was used to form a quinoneimine dye. The concentration of dye formed was measured spectrophotometrically by absorbance at 490 nm after incubation at 25° C. for 30 minutes. The concentration of cholesterol was determined for each serum sample relative to a commercial standard from Sigma.
HDL cholesterol concentrations in serum were determined by separation of lipoprotein classes by fast protein liquid chromatography (FPLC) by a modification of the method of Kieft et al., J. Lipid Res., 32 (1991), 859-866. Using this methodology, […] of serum was injected onto Superose 12 and Superose 6 (available from Pharmacia), in series, with a column buffer of 0.05 M Tris (2-amino-2-hydroxymethyl-1,3-propanediol) and 0.15 M sodium chloride at a flow rate of 0.5 mL/min. The eluted sample was mixed on line with Boehringer-Mannheim cholesterol reagent pumped at 0.2 mL/min. The combined eluents were mixed and incubated on line through a knitted coil (available from Applied Biosciences) maintained at a temperature of 45° C. The eluent was monitored by measuring absorbance at 490 nm and gave a continous absorbance signal proportional to the cholesterol concentration. The relative concentration for each lipoprotein class was calculated as the percent of total absorbance. HDL cholesterol concentration in serum, was calculated as the percent of total cholesterol as determined by FPLC multiplied by the total serum cholesterol concentration.
Test compounds were administered at a dose of 100 mg/kg for 8 days.

Cc1ccc(Cl)cc1NC(=S)Nc1nccs1 [Example 1, 1-(5-Chloro-2-methyl-phenyl)-3-(thiazol-2-yl)-thiourea]
change in vivo at 100 mg/kg/day (serum HDL cholesterol): 65%
melting point: 197 to 198 °C

Cc1ccc(Cl)cc1NC(=S)Nc1nc2ccccc2s1 [Example 2, 1-(Benzothiazol-2-yl)-3-(5-chloro-2-methyl-phenyl)-thiourea]
change in vivo at 100 mg/kg/day (serum HDL cholesterol): 6%

Cc1ccc(Cl)cc1NC(=S)Nc1nc2ccc3ccccc3c2s1 [Example 3, 1-(5-Chloro-2-methyl-phenyl)-3-(naphtho[2,1-d]thiazol-2-yl)-thiourea]
change in vivo at 100 mg/kg/day (serum HDL cholesterol): 0.3%

Cc1coc(NC(=S)Nc2cc(Cl)ccc2C)n1 [Example 4, 1-(5-Chloro-2-methyl-phenyl)-3-(4-methyl-oxazol-2-yl)-thiourea]
change in vivo at 100 mg/kg/day (serum HDL cholesterol): 158%
melting point: 207 to 208 °C

Cc1nnc(NC(=S)Nc2cc(Cl)ccc2C)s1 [Example 5, 1-(5-Chloro-2-methyl-phenyl)-3-(5-methyl-[1,3,4]thiadiazol-2-yl)-thiourea]
change in vivo at 100 mg/kg/day (serum HDL cholesterol): 69%

Cc1ccc(Cl)cc1NC(=S)Nc1ccn(C)n1 [Example 6, 1-(5-Chloro-2-methyl-phenyl)-3-(1-methyl-1H-pyrazol-3-yl)-thiourea]
change in vivo at 100 mg/kg/day (serum HDL cholesterol): -11%
melting point: 217 to 218 °C

Cc1ccc(Cl)cc1NC(=S)Nc1cc[nH]n1 [Example 7, 1-(5-Chloro-2-methyl-phenyl)-3-(1H-pyrazol-3-yl)-thiourea]
change in vivo at 100 mg/kg/day (serum HDL cholesterol): 97%
melting point: 221 to 222 °C

Cc1ccc(Cl)cc1NC(=S)Nc1c(C)nn(C)c1C [Example 8, 1-(5-Chloro-2-methyl-phenyl)-3-(1,3,5-trimethyl-1H-pyrazol-4-yl)-thiourea]
change in vivo at 100 mg/kg/day (serum HDL cholesterol): 110%
melting point: 176 to 177 °C

Cc1csc(NC(=S)Nc2cc(Cl)ccc2C)n1 [Example 9, 1-(5-Chloro-2-methyl-phenyl)-3-(4-methyl-thiazol-2-yl)-thiourea]
change in vivo at 100 mg/kg/day (serum HDL cholesterol): 79%
melting point: 188 °C

Cc1ccc(Cl)cc1NC(=S)Nc1nc(C)c(C)s1 [Example 10, 1-(5-Chloro-2-methyl-phenyl)-3-(4,5-dimethyl-thiazol-2-yl)-thiourea]
change in vivo at 100 mg/kg/day (serum HDL cholesterol): 41%
melting point: 188 to 189 °C

CCOC(=O)Cc1csc(NC(=S)Nc2cc(Cl)ccc2C)n1 [Example 11, {2-[3-(5-Chloro-2-methyl-phenyl)-thioureido]-thiazol-4-yl}-acetic acid ethyl ester]
change in vivo at 100 mg/kg/day (serum HDL cholesterol): 2%
melting point: 177 to 179 °C

Cc1cc(NC(=S)Nc2cc(Cl)ccc2C)sn1 [Example 12, 1-(5-Chloro-2-methyl-phenyl)-3-(3-methyl-isothiazol-5-yl)-thiourea]
change in vivo at 100 mg/kg/day (serum HDL cholesterol): 134%
melting point: 187 to 188 °C (dec.)

Cc1nc2cc(NC(=S)Nc3cc(Cl)ccc3C)ccc2s1 [Example 13, 1-(5-Chloro-2-methyl-phenyl)-3-(2-methyl-benzothiazol-5-yl)-thiourea]
change in vivo at 100 mg/kg/day (serum HDL cholesterol): 36%
melting point: 173 to 174 °C

CCc1nnc(NC(=S)Nc2cc(Cl)ccc2C)s1 [Example 14, 1-(5-Chloro-2-methyl-phenyl)-3-(5-ethyl-[1,3,4]thiadiazol-2-yl)-thiourea]
change in vivo at 100 mg/kg/day (serum HDL cholesterol): 90%

Cc1cccc(Cl)c1NC(=S)Nc1c(C)nn(C)c1C [Example 15, 1-(2-Chloro-6-methyl-phenyl)-3-(1,3,5-trimethyl-1H-pyrazol-4-yl)-thiourea]
change in vivo at 100 mg/kg/day (serum HDL cholesterol): 58%
melting point: 201 to 202 °C

Cc1cc(Cl)ccc1NC(=S)Nc1c(C)nn(C)c1C [Example 16, 1-(4-Chloro-2-methyl-phenyl)-3-(1,3,5-trimethyl-1H-pyrazol-4-yl)-thiourea 0.12 solvate with acetic acid ethyl ester]
HDL Cholesterol Level Increase (%) (serum HDL cholesterol): 104%

Cc1coc(NC(=S)Nc2ccc(Cl)cc2C)n1 [Example 17, 1-(4-Chloro-2-methyl-phenyl)-3-(4-methyl-oxazol-2-yl)-thiourea]
change in vivo at 100 mg/kg/day (serum HDL cholesterol): 134%
melting point: 214 °C (dec.)

Cc1coc(NC(=S)Nc2c(C)cccc2Cl)n1 [Example 18, 1-(2-Chloro-6-methyl-phenyl)-3-(4-methyl-oxazol-2-yl)-thiourea]
change in vivo at 100 mg/kg/day (serum HDL cholesterol): 193%
melting point: 222 °C (dec.)

CCN(C(=S)Nc1cc(Cl)ccc1C)c1c(C)nn(C)c1C [Example 19, 3-(5-Chloro-2-methyl-phenyl)-1-ethyl-1-(1,3,5-trimethyl-1H-pyrazol-4-yl)-thiourea]
change in vivo at 100 mg/kg/day (serum HDL cholesterol): 79%
melting point: 144 to 145 °C

CS/C(=N/c1c(C)nn(C)c1C)Nc1cc(Cl)ccc1C [Example 20, (E)-1-(5-Chloro-2-methyl-phenyl)-2-methyl-3-(1,3,5-trimethyl-1H-pyrazol-4-yl)-isothiourea]
change in vivo at 100 mg/kg/day (serum HDL cholesterol): 35%
melting point: 134 to 135 °C

CCN(C(=Nc1cc(Cl)ccc1C)SC)c1c(C)nn(C)c1C.Cl [Example 21, 3-(5-Chloro-2-methyl-phenyl)-1-ethyl-2-methyl-1-(1,3,5-trimethyl-1H-pyrazol-4-yl)-isothiourea 1:1 salt with hydrochloric acid]
HDL Cholesterol Level Increase (%) (serum HDL cholesterol): 29%
